Reference: patent publication US20240018154A1, “NEW INDAZOLE DERIVATIVES” (Hoffmann-La Roche Inc., priority 2020, published 2024)

Molecular target: T1, EGFR LRCS (BaF3-LRCS cell line) (Homo sapiens, UniProt P00533, C797S/L858R)
T1 construct: host or cells: BaF3 (BaF3-LRCS engineered line, kept under puromycin)
Test: HTRF Phospho EGFR LRCS assay (cellular)
Format: cell-based
Details: BaF3-LRCS cells, 4 hours incubation with compound, Phospho-EGFR HTRF readout
Description: HTRF Phospho EGFR LRCS Assay (Cellular)
BaF3-LRCS cell line were obtained from Crownbio (San Diego, CA, USA). Cells were maintained at 37° C., 5% CO2 in RPMI ATCC (Gibco 31870)+2 mM Glutamine+0.5 μg/ml Puromycin supplemented with 10% fetal bovine serum (FBS) (Gibco).
Cells are transferred as above to Greiner Bio-One, Nr. 784-08 micro-titerplate at 20000 cells/well in 12.5 μl of growth medium/well after the plates had been pre-filled with 12.5 nl of DMSO solutions of the to be tested compounds (in dose response) or DMSO only. After spinning the plates at 300×g for 30 seconds the cells were incubated for 4 hours at 37 C, 5% CO2, 95% humidity. The cells were lysed by adding to the compound mix 4 μl/well of the supplemented lysis buffer (Cis-bio, Phospho-EGFR HTRF kit, 64EG1PEH), followed by incubation for 30 min at room temperature with shaking (400 rpm). The plates were then frozen and stored overnight at −80° C. On the next day and after thawing the plates, 4 μl of a mixture of anti-Phospho-EGFR Cryptate and of anti-Phospho-EGFR-d2 antibody solutions prepared in the supplied detection buffer was added to each well. The lidded plates were then incubated for 4 h at room temperature before reading the fluorescence emission at 616 and 665 nm using an Envision reader (Perkin Elmer). Data was analyzed in similar fashion as above using the normalized ratio of the 665 to 616 signals multiplied by 10000.

T1 sequence (P00533 25-1210 C797S/L858R): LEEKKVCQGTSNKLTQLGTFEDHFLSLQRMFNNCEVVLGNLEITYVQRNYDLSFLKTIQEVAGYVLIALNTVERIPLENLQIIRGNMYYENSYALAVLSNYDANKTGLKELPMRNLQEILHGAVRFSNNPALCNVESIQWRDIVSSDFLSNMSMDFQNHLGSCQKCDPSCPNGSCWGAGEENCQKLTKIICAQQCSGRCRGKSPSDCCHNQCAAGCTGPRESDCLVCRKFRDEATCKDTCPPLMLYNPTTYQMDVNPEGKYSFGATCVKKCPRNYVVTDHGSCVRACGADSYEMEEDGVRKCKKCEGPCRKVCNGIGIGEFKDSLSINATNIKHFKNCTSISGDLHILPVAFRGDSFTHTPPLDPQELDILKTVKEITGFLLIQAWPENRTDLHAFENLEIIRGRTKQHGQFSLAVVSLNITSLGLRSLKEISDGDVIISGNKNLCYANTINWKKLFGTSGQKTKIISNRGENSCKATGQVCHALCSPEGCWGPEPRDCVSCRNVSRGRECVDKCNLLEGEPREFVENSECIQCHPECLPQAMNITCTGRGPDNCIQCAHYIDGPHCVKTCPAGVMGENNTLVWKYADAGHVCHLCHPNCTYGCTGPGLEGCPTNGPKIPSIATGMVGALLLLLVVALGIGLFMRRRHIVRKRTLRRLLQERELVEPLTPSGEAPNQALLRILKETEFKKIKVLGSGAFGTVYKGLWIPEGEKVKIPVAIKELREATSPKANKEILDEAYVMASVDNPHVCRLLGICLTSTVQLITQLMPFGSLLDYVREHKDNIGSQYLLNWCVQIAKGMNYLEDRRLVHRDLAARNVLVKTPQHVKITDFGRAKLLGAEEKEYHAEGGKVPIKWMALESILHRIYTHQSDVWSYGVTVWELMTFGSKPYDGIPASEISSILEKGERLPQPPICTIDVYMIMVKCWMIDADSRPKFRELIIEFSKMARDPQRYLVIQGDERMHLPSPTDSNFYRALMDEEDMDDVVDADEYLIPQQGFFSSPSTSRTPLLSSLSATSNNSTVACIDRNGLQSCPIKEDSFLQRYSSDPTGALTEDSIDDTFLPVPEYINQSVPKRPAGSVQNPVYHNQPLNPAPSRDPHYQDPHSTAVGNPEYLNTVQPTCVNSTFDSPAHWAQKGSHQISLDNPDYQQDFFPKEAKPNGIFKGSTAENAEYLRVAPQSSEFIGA

| Structure (SMILES) | IC50 [nM] |
| --- | --- |
| Cc1c(-c2ccc(N3CCOCC3)nc2)cc(C(F)F)c2cn(C(C(=O)Nc3nccs3)c3ncn4c3C[C@@H](F)C4)nc12 (stereo partly drawn) [Example 21, 2-[4-(Difluoromethyl)-7-methyl-6-(6-morpholino-3-pyridyl)indazol-2-yl]-2-[(6R)-6-fluoro-6,7-dihydro-5H-pyrrolo[1,2-c]imidazol-1-yl]-N-thiazol-2-yl-acetamide] | 12 |
| Cc1c(-c2ccc(OCCN3CCC(C(C)O)CC3)cc2)cc(C(F)F)c2cn(C(C(=O)Nc3nccs3)c3ncn4c3C[C@@H](F)C4)nc12 (stereo partly drawn) [Example 22, 2-[4-(Difluoromethyl)-6-[4-[2-[4-(1-hydroxyethyl)-1-piperidyl]ethoxy]phenyl]-7-methyl-indazol-2-yl]-2-[(6R)-6-fluoro-6,7-dihydro-5H-pyrrolo[1,2-c]imidazol-1-yl]-N-thiazol-2-yl-acetamide] | 30 |
| Cc1c(-c2ccc(C3CCN(CC(C)F)CC3)cc2)cc(C(F)F)c2cn(C(C(=O)Nc3nccs3)c3ncn4c3C[C@@H](F)C4)nc12 (stereo partly drawn) [Example 23, 2-[4-(Difluoromethyl)-6-[4-[1-(2-fluoropropyl)-4-piperidyl]phenyl]-7-methyl-indazol-2-yl]-2-[(6R)-6-fluoro-6,7-dihydro-5H-pyrrolo[1,2-c]imidazol-1-yl]-N-thiazol-2-yl-acetamide] | 21 |
| Cc1c(-c2ccc(N3CCC(C)(O)CC3)cc2)cc(C(F)F)c2cn(C(C(=O)Nc3nccs3)c3ncn4c3C[C@@H](F)C4)nc12 (stereo partly drawn) [Example 24, 2-[4-(Difluoromethyl)-6-[4-(4-hydroxy-4-methyl-1-piperidyl)phenyl]-7-methyl-indazol-2-yl]-2-[(6R)-6-fluoro-6,7-dihydro-5H-pyrrolo[1,2-c]imidazol-1-yl]-N-thiazol-2-yl-acetamide] | 25 |

More lines, now with the values ahead:

| IC50 [nM] | Structure (SMILES) |
| --- | --- |
| 29 | CCN1C[C@H]2CN(c3ccc(-c4cc(C(F)F)c5cn(C(C(=O)Nc6nccs6)c6ncn7c6C[C@@H](F)C7)nc5c4C)cc3)C[C@]2(F)C1 (stereo partly drawn) [Example 25, 2-[6-[4-[(3aR,6aS)-2-Ethyl-3a-fluoro-3,4,6,6a-tetrahydro-1H-pyrrolo[3,4-c]pyrrol-5-yl]phenyl]-4-(difluoromethyl)-7-methyl-indazol-2-yl]-2-[(6R)-6-fluoro-6,7-dihydro-5H-pyrrolo[1,2-c]imidazol-1-yl]-N-thiazol-2-yl-acetamide] |
| 78 | Cc1c(-c2ccc(N3CCOC(CN(C)C)C3)cc2)cc(C(F)F)c2cn(C(C(=O)Nc3nccs3)c3ncn4c3C[C@@H](F)C4)nc12 (stereo partly drawn) [Example 26, 2-[4-(Difluoromethyl)-6-[4-[2-[(dimethylamino)methyl]morpholin-4-yl]phenyl]-7-methyl-indazol-2-yl]-2-[(6R)-6-fluoro-6,7-dihydro-5H-pyrrolo[1,2-c]imidazol-1-yl]-N-thiazol-2-yl-acetamide] |
| 28 | Cc1c(-c2ccc(CCN3CCC(O)CC3)cc2)cc(C(F)F)c2cn(C(C(=O)Nc3nccs3)c3ncn4c3C[C@@H](F)C4)nc12 (stereo partly drawn) [Example 27, 2-[4-(Difluoromethyl)-6-[4-[2-(4-hydroxy-1-piperidyl)ethyl]phenyl]-7-methyl-indazol-2-yl]-2-[(6R)-6-fluoro-6,7-dihydro-5H-pyrrolo[1,2-c]imidazol-1-yl]-N-thiazol-2-yl-acetamide] |
| 34 | Cc1c(-c2ccc(CN(C)C3CCC(O)CC3)cc2)cc(C(F)F)c2cn(C(C(=O)Nc3nccs3)c3ncn4c3C[C@@H](F)C4)nc12 (stereo partly drawn) [Example 28, 2-[4-(Difluoromethyl)-6-[4-[[(4-hydroxycyclohexyl)-methyl-amino]methyl]phenyl]-7-methyl-indazol-2-yl]-2-[(6R)-6-fluoro-6,7-dihydro-5H-pyrrolo[1,2-c]imidazol-1-yl]-N-thiazol-2-yl-acetamide] |
| 28 | Cc1c(-c2ccc(N3C[C@H]4CN(CC(C)F)C[C@H]4C3)cc2)cc(C(F)F)c2cn(C(C(=O)Nc3nccs3)c3ncn4c3C[C@@H](F)C4)nc12 (stereo partly drawn) [Example 29, 2-[6-[4-[(3aR,6aS)-2-(2-Fluoropropyl)-1,3,3a,4,6,6a-hexahydropyrrolo[3,4-c]pyrrol-5-yl]phenyl]-4-(difluoromethyl)-7-methyl-indazol-2-yl]-2-[(6R)-6-fluoro-6,7-dihydro-5H-pyrrolo[1,2-c]imidazol-1-yl]-N-thiazol-2-yl-acetamide] |
